Among the data in patent US20250092065A1, “2-(INDAZOL-5-YL)-6-(PIPERIDIN-4-YL)-1,7-NAPHTHYRIDINE DERIVATIVES AND RELATED COMPOUNDS AS MODULATORS FOR SPLICING NUCLEIC ACIDS AND FOR THE TREATMENT OF PROLIFERATIVE DISEASES” (REMIX THERAPEUTICS INC., priority 2022, published 2025) are AC50 and IC50 values, retold here.

The subject of the experiment is HTT mRNA. As to the kind of experiment: RT-qPCR splicing assay, HTT mRNA canonical (CJ) and alternative (AJ) junction. Type of experiment: cell-based, human. To be noted: Homo sapiens; for AC50: HTT alternative junction mRNA, read-out: HTT AJ (increase in AJ mRNA, AC50). The procedure, abridged:
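A673 or K562 cells treated 24 h at 37 °C with an 11-point 3-fold dilution series (top 10 uM, DMSO ≤0.25%). Lysates went directly to one-step RT-qPCR quantifying canonical (CJ) and alternative-exon (AJ) junctions, normalized to GAPDH, GUSB or PPIA. Values from ΔΔCt versus DMSO, RQ = 2^(−ΔΔCt), expressed as percentage response.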

The mark [1] stands for this setting: HTT canonical junction mRNA, RT-qPCR, read-out: HTT CJ (decrease in CJ mRNA levels, IC50).
Where [2] appears, read: canonical junction qPCR panel, Table 4, read-out: HTT IC50 (decrease in CJ mRNA levels).

pIC50: −log10 of the molar value. Like-named read-outs stand apart in the source and are kept apart here.

`Cc1c(O)c(-c2ncc3nc(C4CCNCC4)ccc3n2)cc2cn(C)nc12` [Compound 370, 2,7-dimethyl-5-[6-(piperidin-4-yl)pyrido[3,2-d]pyrimidin-2-yl]indazol-6-ol]: the AC50 (RT-qPCR) was 1000 to 10000 nM. For the same compound, the pIC50 reads like this: under setting [1], 6.00 to 7.00; under setting [2], 6.00 to 7.00.

Take `Cc1nc2c(F)c(O)c(-c3ccc4nc(N5CC[C@H](N[C@H]6C[C@@H](F)C6)C5)ccc4n3)cc2o1` [Compound 374, 4-fluoro-2-methyl-6-[6-(3-{[(1r,3r)-3-fluorocyclobutyl]amino}pyrrolidin-1-yl)-1,5-naphthyridin-2-yl]-1,3-benzoxazol-5-ol]: for the setting “RT-qPCR”, the AC50 was below 100 nM. For the same compound, the negative logarithm of the IC50 (pIC50) by setting is: under setting [1], above 7.00; under setting [2], above 7.00.

Turning to `CNC1CCN(c2ccc3nc(-c4cc(C#N)c5nc(C)cn5c4)ncc3n2)C1` (stereo not drawn) [Compound 382, 2-methyl-6-{6-[3-(methylamino)pyrrolidin-1-yl]pyrido[3,2-d]pyrimidin-2-yl}imidazo[1,2-a]pyridine-8-carbonitrile], the AC50 (RT-qPCR) was 100 to 1000 nM. In addition, the pIC50 was 6.00 to 7.00 under setting [1] and 6.00 to 7.00 under setting [2].

For the compound `Cn1cc2cc(-c3ccc4nc(N5CC[C@H](NC6CC(F)(F)C6)C5)ccc4n3)c(O)cc2n1` [Compound 384], the AC50 (RT-qPCR) was 1000 to 10000 nM. Further, the pIC50 is 5.00 to 6.00 under setting [1] and 5.00 to 6.00 under setting [2].

On to `Cn1cc2cc(-c3ccc4nc(N5CC[C@@H](NC6CC(F)(F)C6)C5)ccc4n3)c(O)cc2n1` [Compound 385], for which the AC50 (RT-qPCR) fell in the range of 100 to 1000 nM. Moreover, the pIC50 is, setting by setting: under setting [1], above 7.00; under setting [2], above 7.00.

For `Cn1cc2cc(-c3ccc4nc(N5CCC(NCC6CC6)C5)ccc4n3)c(O)c(F)c2n1` (stereo not drawn) [Compound 387, 5-(6-{3-[(cyclopropylmethyl)amino]pyrrolidin-1-yl}-1,5-naphthyridin-2-yl)-7-fluoro-2-methylindazol-6-ol], the AC50 (RT-qPCR) is below 100 nM. Moreover, the pIC50 was above 7.00 under setting [1] and above 7.00 under setting [2].

`CC(C)NC1CCN(c2ccc3nc(-c4cc5cn(C)nc5c(F)c4O)ccc3n2)C1` (stereo not drawn) [Compound 388, 7-fluoro-5-{6-[3-(isopropylamino)pyrrolidin-1-yl]-1,5-naphthyridin-2-yl}-2-methylindazol-6-ol]: the AC50 (RT-qPCR) is below 100 nM. Further, the pIC50 runs as follows: under setting [1], above 7.00; under setting [2], above 7.00.

For `Cc1nc2cc(O)c(-c3ccc4nc(N5CCC(NCC6CC6)C5)ccc4n3)cc2o1` (stereo not drawn) [Compound 389, 6-(6-{3-[(cyclopropylmethyl)amino]pyrrolidin-1-yl}-1,5-naphthyridin-2-yl)-2-methyl-1,3-benzoxazol-5-ol], where the note is “RT-qPCR”, the AC50 lay in the range of 100 to 1000 nM. The pIC50 is above 7.00 under setting [1] and above 7.00 under setting [2].

For `Cc1nc2c(C)c(O)c(-c3ccc4nc(N5CCC(NCC6CC6)C5)ccc4n3)cc2o1` (stereo not drawn) [Compound 390, 6-(6-{3-[(cyclopropylmethyl)amino]pyrrolidin-1-yl}-1,5-naphthyridin-2-yl)-2,4-dimethyl-1,3-benzoxazol-5-ol], under “RT-qPCR”, the half-maximal activity concentration (AC50) is below 100 nM. The pIC50 is above 7.00 under setting [1] and above 7.00 under setting [2].

For `CNC1CCN(c2ccc3nc(-c4cc(F)c5nc(C)cn5c4)ncc3n2)C1` (stereo not drawn) [Compound 393, 1-(2-{8-fluoro-2-methylimidazo[1,2-a]pyridin-6-yl}pyrido[3,2-d]pyrimidin-6-yl)-N-methylpyrrolidin-3-amine], the AC50 (RT-qPCR) lay within 100 to 1000 nM. For the same compound, the pIC50 under setting [1] was 6.00 to 7.00 and the negative-log IC50 (pIC50) under setting [2] was 6.00 to 7.00.

For `Cc1c(O)c(-c2ncc3nc(C4CCNC4)ccc3n2)cc2cn(C)nc12` (stereo not drawn) [Compound 397, 2,7-dimethyl-5-[6-(pyrrolidin-3-yl)pyrido[3,2-d]pyrimidin-2-yl]indazol-6-ol; trifluoroacetic acid], the AC50 (RT-qPCR) lay in the range of 1000 to 10000 nM. Also, the pIC50 is, setting by setting: under setting [1], 5.00 to 6.00; under setting [2], 5.00 to 6.00.

Consider `Cc1c(O)c(-c2ncc3nc([C@H]4CCNC4)ccc3n2)cc2cn(C)nc12` [Compound 399], for which, under “RT-qPCR”, the AC50 was above 10000 nM. In addition, the pIC50 by setting is: under setting [1], below 5.00; under setting [2], below 5.00.

For the compound `Cn1cc2cc(-c3ncc4nc(C5CCNCC5)ccc4n3)c(O)c(C#N)c2n1` [Compound 403, 6-hydroxy-2-methyl-5-[6-(piperidin-4-yl)pyrido[3,2-d]pyrimidin-2-yl]indazole-7-carbonitrile; trifluoroacetic acid], where the note is “RT-qPCR”, the concentration at half-maximal activity (AC50) was in the range of 100 to 1000 nM. In addition, the negative logarithm of the IC50 (pIC50) is, setting by setting: under setting [1], 6.00 to 7.00; under setting [2], 6.00 to 7.00.

With `Cn1cc2cc(-c3ccc4nc(N5CCC(NC(C)(C)C)C5)ncc4n3)c(O)cc2n1` (stereo not drawn) [Compound 404, 5-{2-[3-(tert-butylamino)pyrrolidin-1-yl]pyrido[3,2-d]pyrimidin-6-yl}-2-methylindazol-6-ol], for the setting “RT-qPCR”, the AC50 is below 100 nM. For the same compound, the pIC50 is, setting by setting: under setting [1], above 7.00; under setting [2], above 7.00.

As for `COc1cc(-c2ccc3nc(N4CCC(NC(C)(C)C)C4)ncc3n2)cnn1` (stereo not drawn) [Compound 405, N-tert-butyl-1-[6-(6-methoxypyridazin-4-yl)pyrido[3,2-d]pyrimidin-2-yl]pyrrolidin-3-amine], the AC50 (RT-qPCR) is 1000 to 10000 nM. Besides, the pIC50 is 5.00 to 6.00 under setting [1] and 5.00 to 6.00 under setting [2].

As to `CN[C@H]1CCN(c2ccc3nc(-c4cc(C#N)c5nc(C)cn5c4)ncc3n2)C1` [Compound 406, 2-methyl-6-{6-[(3S)-3-(methylamino)pyrrolidin-1-yl]pyrido[3,2-d]pyrimidin-2-yl}imidazo[1,2-a]pyridine-8-carbonitrile], the AC50 (RT-qPCR) fell in the range of 1000 to 10000 nM. Also, the pIC50 under setting [1] is 6.00 to 7.00 and the pIC50 under setting [2] was 6.00 to 7.00.

Regarding `CN[C@@H]1CCN(c2ccc3nc(-c4cc(C#N)c5nc(C)cn5c4)ncc3n2)C1` [Compound 407, 2-methyl-6-{6-[(3R)-3-(methylamino)pyrrolidin-1-yl]pyrido[3,2-d]pyrimidin-2-yl}imidazo[1,2-a]pyridine-8-carbonitrile], the AC50 (RT-qPCR) lay within 1000 to 10000 nM. In addition, the negative logarithm of the IC50 (pIC50) by setting is: under setting [1], 6.00 to 7.00; under setting [2], 6.00 to 7.00.

With `Cc1nc2cc(O)c(-c3ccc4nc(N5CCNCC5)ccc4n3)cc2o1` [Compound 408, 2-methyl-6-[6-(piperazin-1-yl)-1,5-naphthyridin-2-yl]-1,3-benzoxazol-5-ol], where the note is “RT-qPCR”, the concentration at half-maximal activity (AC50) is 1000 to 10000 nM. Also, the negative logarithm of the IC50 (pIC50) runs as follows: under setting [1], 6.00 to 7.00; under setting [2], 6.00 to 7.00.

Regarding `Cc1nc2cc(O)c(-c3ccc4nc(N5CCN[C@@H](C)C5)ccc4n3)cc2o1` [Compound 409], the AC50 (RT-qPCR) lay within 100 to 1000 nM. Besides, the pIC50 reads like this: under setting [1], 6.00 to 7.00; under setting [2], 6.00 to 7.00.

With `Cc1nc2cc(O)c(-c3ccc4nc(N5CCN6CCCC6C5)ccc4n3)cc2o1` (stereo not drawn) [Compound 410], the AC50 (RT-qPCR) lay within 100 to 1000 nM. For the same compound, the pIC50 is 6.00 to 7.00 under setting [1] and 6.00 to 7.00 under setting [2].

Consider `Cc1nc2cc(O)c(-c3ccc4nc(N5CCNC6(CC6)C5)ccc4n3)cc2o1` [Compound 411], for which the half-maximal activity concentration (AC50) (RT-qPCR) was above 10000 nM. Further, the pIC50 is, setting by setting: under setting [1], 5.00 to 6.00; under setting [2], 5.00 to 6.00.

Turning to `Cc1nc2cc(O)c(-c3ccc4nc(N5CCC(NC(C)(C)C)CC5)ccc4n3)cc2o1` [Compound 412], the AC50 (RT-qPCR) lay within 100 to 1000 nM. For the same compound, the pIC50 under setting [1] was 6.00 to 7.00 and the pIC50 under setting [2] is 6.00 to 7.00.

As for `Cc1nc2cc(O)c(-c3ccc4nc(N5CC[C@@H](NC(C)(C)C)C5)ncc4n3)cc2o1` [Compound 413, 6-{2-[(3R)-3-(tert-butylamino)pyrrolidin-1-yl]pyrido[3,2-d]pyrimidin-6-yl}-2-methyl-1,3-benzoxazol-5-ol], the AC50 (RT-qPCR) is below 100 nM. The pIC50 reads like this: under setting [1], above 7.00; under setting [2], above 7.00.

Regarding `Cc1nc2cc(O)c(-c3ccc4nc(N5CC[C@H](NC(C)(C)C)C5)ncc4n3)cc2o1` [Compound 414, 6-{2-[(3S)-3-(tert-butylamino)pyrrolidin-1-yl]pyrido[3,2-d]pyrimidin-6-yl}-2-methyl-1,3-benzoxazol-5-ol], under “RT-qPCR”, the AC50 fell in the range of 100 to 1000 nM. Also, the pIC50 runs as follows: under setting [1], above 7.00; under setting [2], above 7.00.

Regarding `Cc1nc2c(C)c(O)c(-c3ccc4nc(N5CC[C@H](NC(C)C)C5)ncc4n3)cc2o1` [Compound 416, 6-{2-[(3S)-3-(isopropylamino)pyrrolidin-1-yl]pyrido[3,2-d]pyrimidin-6-yl}-2,4-dimethyl-1,3-benzoxazol-5-ol], the AC50 (RT-qPCR) is below 100 nM. Moreover, the pIC50 under setting [1] was above 7.00 and the pIC50 under setting [2] is above 7.00.

With `Cc1nc2cc(O)c(-c3ccc4cc(N5CC[C@@H](NC(C)(C)C)C5)ncc4n3)cc2o1` [Compound 417], the AC50 (RT-qPCR) was 1000 to 10000 nM. Besides, the pIC50 reads like this: under setting [1], 6.00 to 7.00; under setting [2], 6.00 to 7.00.

Consider `Cc1nc2cc(O)c(-c3ccc4nc(N5CCN[C@@H](C6CC6)C5)ccc4n3)cc2o1` [Compound 418], for which the AC50 (RT-qPCR) was 100 to 1000 nM. The pIC50 is 6.00 to 7.00 under setting [1] and 6.00 to 7.00 under setting [2].

Consider `Cc1nc2cc(O)c(-c3ccc4nc(N5C[C@@H](C)N[C@@H](C6CC6)C5)ccc4n3)cc2o1` [Compound 419], for which the AC50 (RT-qPCR) fell in the range of 100 to 1000 nM. Further, the pIC50 reads like this: under setting [1], 6.00 to 7.00; under setting [2], 6.00 to 7.00.

As to `Cc1nc2cc(O)c(-c3ccc4nc(N5C[C@@H](C)N[C@@H](C)C5)ccc4n3)cc2o1` [Compound 420], the AC50 (RT-qPCR) lay within 1000 to 10000 nM. Further, the pIC50 under setting [1] is 6.00 to 7.00 and the pIC50 under setting [2] was 6.00 to 7.00.

`Cc1nc2cc(O)c(-c3ccc4nc(N5CCN[C@H](C6CC6)C5)ccc4n3)cc2o1` [Compound 421]: under “RT-qPCR”, the AC50 lay within 100 to 1000 nM. In addition, the pIC50 was 6.00 to 7.00 under setting [1] and 6.00 to 7.00 under setting [2].

For `Cc1nc2cc(O)c(-c3ccc4nc(N5CCN[C@@H](C(C)C)C5)ccc4n3)cc2o1` [Compound 422], the AC50 (RT-qPCR) was in the range of 100 to 1000 nM. The pIC50 was 6.00 to 7.00 under setting [1] and 6.00 to 7.00 under setting [2].

For the compound `Cc1nc2cc(O)c(-c3ccc4nc(N5CCC(N)CC5)ccc4n3)cc2o1` [Compound 424], the AC50 (RT-qPCR) is 1000 to 10000 nM. Moreover, the pIC50 was 5.00 to 6.00 under setting [1] and 5.00 to 6.00 under setting [2].
